Measured values reported in patent publication US20260317344A1, “EGFR INHIBITORS FOR TREATING DISEASE” (BLOSSOMHILL THERAPEUTICS, INC., priority 2023, published 2026).

Key:
EGFR (L858R/T790M/C797S) = EGFR (L858R/T790M/C797S) (Homo sapiens, UniProt P00533, C797S/L858R/T790M); assay: HotSpot radiometric kinase assay, inhibition of EGFR L858R/T790M/C797S mutant; type: biochemical; conditions: 33P ATP, room temperature, 120 m
Summary of the method: (§1)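 Radiometric filter-binding format: ATP plus 33P-ATP ([…]) was added about 20 min after compound to kinase and substrate in HEPES pH 7.5 buffer with Mg2+, EGTA, Brij35, BSA, vanadate, DTT and 1% DMSO. After 120 min at room temperature, reactions were spotted on P81 paper and washed in phosphoric acid; IC50 values fitted.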

EGFR (D746-750) = EGFR (D746-750) (Homo sapiens, UniProt P00533, DEL746-750); assay: HotSpot radiometric kinase assay, inhibition of EGFR 746-750 mutant; type: biochemical; conditions: 33P ATP, room temperature, 120 m
Summary of the method: as §1

EGFR (D746-750/C797S) = EGFR (D746-750/C797S) (Homo sapiens, UniProt P00533, C797S/DEL746-750); assay: HotSpot radiometric kinase assay, inhibition of EGFR 746-750/C797S mutant; type: biochemical; conditions: 33P ATP, room temperature, 120 m
Summary of the method: as §1

EGFR (D770_N771insNPG) = EGFR (D770_N771insNPG) (Homo sapiens, UniProt P00533, INS770NPG); assay: HotSpot radiometric kinase assay, inhibition of EGFR (D770_N771insNPG) mutant; type: biochemical; conditions: 33P ATP, room temperature, 120 m
Summary of the method: as §1

[1] = biological target: T1, pEGFR, PC-9 cells (d746-750 EGFR) (Homo sapiens, UniProt P00533, DEL746-750); assay: Cellular EGFR phosphorylation assay (LANCE Ultra TR-FRET) in PC-9 cells; type: cell-based; conditions: 4 hours at 37° C., read-out: PC-9 pEGFR IC50
T1 construct: pEGFR (Tyr1068) TR-FRET
Summary of the method: (§2)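 Cells were treated with compound for 4 h at 37 °C as a 9-point, 3-fold titration; A431 cells were stimulated with 40 ng/mL EGF for the final 10 min. Phospho-EGFR (Tyr1068) in lysates was read by TR-FRET after 4-6 h antibody incubation, and IC50 values were fitted.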

[2] = biological target: T2, pEGFR, NCI-H1975 cells (L858R/T790M EGFR) (Homo sapiens, UniProt P00533, L858R/T790M); assay: Cellular EGFR phosphorylation assay (LANCE Ultra TR-FRET) in NCI-H1975 cells; type: cell-based; conditions: 4 hours at 37° C., read-out: H1975 pEGFR IC50
T2 construct: pEGFR (Tyr1068) TR-FRET
Summary of the method: as §2

[3] = biological target: T3, pEGFR, A431 cells (wildtype EGFR) (Homo sapiens, UniProt P00533); assay: Cellular EGFR phosphorylation assay (LANCE Ultra TR-FRET) in A431 cells; type: cell-based; conditions: 4 hours at 37° C., 40 ng/mL EGF for the final 10 minutes, read-out: A431 pEGFR IC50
T3 construct: pEGFR (Tyr1068) TR-FRET
Summary of the method: as §2

PC-9 cells = assay: 5-Day CellTiter Glo (CTG) cell proliferation assay, PC-9; type: cell-based; conditions: Homo sapiens; PC-9 cells (d746-750 EGFR), 5-day CTG proliferation, 120 hours; read-out: PC-9 IC50
Summary of the method: (§3)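 Proliferation of EGFR-driven NSCLC cells was scored as CellTiter-Glo 2.0 luminescence after a 5-day (120 h) incubation with compounds in 9 doses. IC50 values came from the dose-response curves.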

NCI-H1975 cells = assay: 5-Day CellTiter Glo (CTG) cell proliferation assay, NCI-H1975; type: cell-based; conditions: Homo sapiens; NCI-H1975 cells (L858R/T790M EGFR), 5-day CTG proliferation, 120 hours; read-out: H1975 IC50
Summary of the method: as §3

HCC827 cells = assay: 5-Day CellTiter Glo (CTG) cell proliferation assay, HCC827; type: cell-based; conditions: Homo sapiens; HCC827 cells (d746-750 EGFR), 5-day CTG proliferation, 120 hours; read-out: HCC827 IC50
Summary of the method: as §3

[4] = tested on: BaF3 cells with engineered EGFR L858R/T790M/C797S; assay: 3-Day CellTiter Glo (CTG) cell proliferation assay, BaF3 EGFR L858R/T790M/C797S; type: cell-based; conditions: Mus musculus, 3-day CTG proliferation, 72 hours
Summary of the method: (§4)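 Growth inhibition in transgene-bearing BaF3 lines was scored after three days of compound treatment by CellTiter-Glo 2.0 ATP luminescence, yielding IC50 values.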

[5] = tested on: BaF3 cells with engineered EGFR L858R/C797S; assay: 3-Day CellTiter Glo (CTG) cell proliferation assay, BaF3 EGFR L858R/C797S; type: cell-based; conditions: Mus musculus, 3-day CTG proliferation, 72 hours
Summary of the method: as §4

[6] = tested on: BaF3 cells with engineered EGFR d746-750/T790M; assay: 3-Day CellTiter Glo (CTG) cell proliferation assay, BaF3 EGFR d746-750/T790M; type: cell-based; conditions: Mus musculus; BaF3 EGFR d746-750/T790M cells, 3-day CTG proliferation, 72 hours
Summary of the method: as §4

Chain of EGFR (D746-750) (P00533 with tags, fused parts or gaps DEL746-750): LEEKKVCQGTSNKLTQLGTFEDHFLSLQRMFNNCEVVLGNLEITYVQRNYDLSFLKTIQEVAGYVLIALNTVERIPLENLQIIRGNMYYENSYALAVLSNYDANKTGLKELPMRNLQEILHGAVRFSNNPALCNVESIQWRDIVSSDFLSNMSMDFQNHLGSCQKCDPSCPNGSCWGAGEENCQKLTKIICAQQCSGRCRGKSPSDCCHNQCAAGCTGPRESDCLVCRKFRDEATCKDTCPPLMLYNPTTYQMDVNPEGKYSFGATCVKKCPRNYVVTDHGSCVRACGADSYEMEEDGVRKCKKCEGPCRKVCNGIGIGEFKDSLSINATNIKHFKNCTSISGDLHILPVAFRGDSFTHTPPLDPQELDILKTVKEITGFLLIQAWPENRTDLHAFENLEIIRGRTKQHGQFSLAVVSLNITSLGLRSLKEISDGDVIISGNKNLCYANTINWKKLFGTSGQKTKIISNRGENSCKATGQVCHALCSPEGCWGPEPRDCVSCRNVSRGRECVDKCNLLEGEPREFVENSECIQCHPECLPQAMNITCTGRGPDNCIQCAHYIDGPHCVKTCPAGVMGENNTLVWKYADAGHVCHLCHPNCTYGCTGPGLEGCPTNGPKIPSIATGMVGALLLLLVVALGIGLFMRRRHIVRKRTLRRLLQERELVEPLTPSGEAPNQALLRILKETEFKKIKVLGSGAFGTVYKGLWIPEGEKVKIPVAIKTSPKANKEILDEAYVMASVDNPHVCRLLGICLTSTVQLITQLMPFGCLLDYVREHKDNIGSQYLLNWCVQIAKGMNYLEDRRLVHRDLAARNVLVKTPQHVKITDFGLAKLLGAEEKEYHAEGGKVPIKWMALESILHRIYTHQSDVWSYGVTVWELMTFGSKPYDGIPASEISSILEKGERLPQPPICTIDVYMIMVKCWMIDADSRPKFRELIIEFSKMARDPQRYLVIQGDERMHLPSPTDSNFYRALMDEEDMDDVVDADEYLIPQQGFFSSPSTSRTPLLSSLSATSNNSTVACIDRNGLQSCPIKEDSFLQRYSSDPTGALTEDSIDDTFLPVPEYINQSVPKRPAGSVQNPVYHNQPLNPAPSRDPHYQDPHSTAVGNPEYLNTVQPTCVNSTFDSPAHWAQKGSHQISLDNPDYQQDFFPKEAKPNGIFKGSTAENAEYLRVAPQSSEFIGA
T1 sequence (P00533 with tags, fused parts or gaps DEL746-750): as above
T2 sequence (P00533 25-1210 T790M/L858R): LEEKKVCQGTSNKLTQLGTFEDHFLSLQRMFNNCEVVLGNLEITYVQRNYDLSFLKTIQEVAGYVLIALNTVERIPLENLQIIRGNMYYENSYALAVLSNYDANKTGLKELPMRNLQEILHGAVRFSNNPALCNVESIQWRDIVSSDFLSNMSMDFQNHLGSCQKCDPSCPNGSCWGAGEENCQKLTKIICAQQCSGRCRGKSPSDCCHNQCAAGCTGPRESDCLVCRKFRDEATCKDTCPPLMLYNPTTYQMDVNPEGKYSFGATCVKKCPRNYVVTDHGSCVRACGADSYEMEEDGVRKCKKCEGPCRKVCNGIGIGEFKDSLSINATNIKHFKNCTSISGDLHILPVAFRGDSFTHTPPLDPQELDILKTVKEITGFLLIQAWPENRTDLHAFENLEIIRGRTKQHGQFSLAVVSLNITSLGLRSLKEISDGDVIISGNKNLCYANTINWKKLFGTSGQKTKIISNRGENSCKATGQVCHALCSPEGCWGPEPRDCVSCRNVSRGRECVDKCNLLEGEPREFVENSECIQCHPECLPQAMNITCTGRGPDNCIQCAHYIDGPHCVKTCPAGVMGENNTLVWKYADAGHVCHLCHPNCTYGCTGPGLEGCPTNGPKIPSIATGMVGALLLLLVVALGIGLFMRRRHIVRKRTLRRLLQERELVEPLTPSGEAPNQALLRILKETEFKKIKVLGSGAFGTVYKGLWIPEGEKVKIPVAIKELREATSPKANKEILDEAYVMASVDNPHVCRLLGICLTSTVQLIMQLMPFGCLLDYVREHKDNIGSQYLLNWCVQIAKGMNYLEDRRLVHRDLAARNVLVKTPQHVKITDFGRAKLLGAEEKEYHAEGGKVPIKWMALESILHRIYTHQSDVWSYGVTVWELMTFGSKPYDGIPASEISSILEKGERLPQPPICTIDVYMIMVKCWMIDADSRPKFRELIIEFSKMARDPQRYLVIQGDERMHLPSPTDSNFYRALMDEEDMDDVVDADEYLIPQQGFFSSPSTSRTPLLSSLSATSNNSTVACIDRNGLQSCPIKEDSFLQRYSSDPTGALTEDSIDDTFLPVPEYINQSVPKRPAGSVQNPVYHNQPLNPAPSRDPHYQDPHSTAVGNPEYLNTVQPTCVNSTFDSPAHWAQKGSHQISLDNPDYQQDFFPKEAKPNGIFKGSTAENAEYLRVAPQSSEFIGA
T3 sequence (P00533 25-1210): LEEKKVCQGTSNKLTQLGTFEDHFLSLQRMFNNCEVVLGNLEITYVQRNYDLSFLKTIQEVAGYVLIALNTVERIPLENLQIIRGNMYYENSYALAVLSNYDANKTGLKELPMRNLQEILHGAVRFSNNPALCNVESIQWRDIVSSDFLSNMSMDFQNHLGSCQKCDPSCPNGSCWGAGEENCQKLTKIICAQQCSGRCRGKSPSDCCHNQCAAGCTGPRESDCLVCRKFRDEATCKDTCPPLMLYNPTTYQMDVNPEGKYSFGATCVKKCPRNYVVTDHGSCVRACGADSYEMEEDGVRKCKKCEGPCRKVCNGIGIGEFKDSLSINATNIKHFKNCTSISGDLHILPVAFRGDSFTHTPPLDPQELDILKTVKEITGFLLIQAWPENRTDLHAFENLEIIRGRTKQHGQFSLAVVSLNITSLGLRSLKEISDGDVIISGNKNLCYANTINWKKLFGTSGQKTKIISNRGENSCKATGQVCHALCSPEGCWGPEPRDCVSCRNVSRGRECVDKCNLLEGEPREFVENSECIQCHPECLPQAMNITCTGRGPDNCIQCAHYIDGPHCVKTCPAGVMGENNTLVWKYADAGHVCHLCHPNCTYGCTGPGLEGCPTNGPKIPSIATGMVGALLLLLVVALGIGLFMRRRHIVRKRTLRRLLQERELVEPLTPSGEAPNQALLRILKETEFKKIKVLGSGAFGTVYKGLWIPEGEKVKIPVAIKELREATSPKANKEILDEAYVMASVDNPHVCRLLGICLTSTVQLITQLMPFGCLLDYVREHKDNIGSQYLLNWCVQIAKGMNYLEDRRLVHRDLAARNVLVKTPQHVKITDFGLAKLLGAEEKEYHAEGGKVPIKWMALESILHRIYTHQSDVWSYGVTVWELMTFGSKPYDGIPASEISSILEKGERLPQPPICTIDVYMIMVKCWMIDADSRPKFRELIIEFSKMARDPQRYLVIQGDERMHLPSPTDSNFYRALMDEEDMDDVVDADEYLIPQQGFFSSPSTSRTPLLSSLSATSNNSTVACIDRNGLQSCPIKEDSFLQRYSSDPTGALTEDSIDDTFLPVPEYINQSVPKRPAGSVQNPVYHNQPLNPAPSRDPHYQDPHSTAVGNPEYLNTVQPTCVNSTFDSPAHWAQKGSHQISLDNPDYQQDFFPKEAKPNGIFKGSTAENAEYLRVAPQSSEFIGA

Row | Compound | IC50 (EGFR (L858R/T790M/C797S)) [nM] | IC50 (EGFR (D746-750)) [nM] | IC50 (EGFR (D746-750/C797S)) [nM] | IC50 (EGFR (D770_N771insNPG)) [nM] | IC50 [1] [nM] | IC50 [2] [nM] | IC50 [3] [nM] | IC50 (PC-9 cells) [nM] | IC50 (NCI-H1975 cells) [nM] | IC50 (HCC827 cells) [nM] | IC50 [4] [nM] | IC50 [5] [nM] | IC50 [6] [nM]
1 | CCOc1nn([C@@H](C)CO)c2c1/C=C/c1n[nH]c3cnc(cc13)-c1c(C)nn(C)c1OCCN(C)C2 [Ex. 59, (2S)-2-[(17E)-16-ethoxy-6,8,12-trimethyl-2,8,10,11,12,13-hexahydro-14H-5,3-(azenometheno)tripyrazolo[3,4-f:3′,4′-j:4″,3″-n][1,4]oxazacyclopentadecin-14-yl]propan-1-ol] | 0.99 | 0.37 | 1.33 | 1.13 | 1.96 | 1.43 | 5.29 | 3.21 | 15.7 | 0.94 | 0.91 | 0.18 | 3.62
2 | CCOc1nn(CCO)c2c1/C=C/c1n[nH]c3cnc(cc13)-c1c(C)nn(C)c1O[C@@H](C)CN(C)C2 [Ex. 44, 2-[(10S,17E)-16-ethoxy-6,8,10,12-tetramethyl-2,8,10,11,12,13-hexahydro-14H-5,3-(azenometheno)tripyrazolo[3,4-f:3′,4′-j:4″,3″-n][1,4]oxazacyclopentadecin-14-yl]ethan-1-ol] | 0.57 | 0.26 | 0.62 | 0.17 | 1.01 | 1.92 | 9.94 | 0.84 | 1.05 | 0.29 | 0.57 | 0.05 | 1.18
3 | CCOc1nn(CCO)c2c1/C=C/c1n[nH]c3cnc(cc13)-c1c(C)nn(C)c1OC[C@H](C)N(C(C)C)C2 [Ex. 2, 2-[(11S,17E)-16-ethoxy-6,8,11-trimethyl-12-(propan-2-yl)-2,8,10,11,12,13-hexahydro-14H-5,3-(azenometheno)tripyrazolo[3,4-f:3′,4′-j:4″,3″-n][1,4]oxazacyclopentadecin-14-yl]ethan-1-ol] | 0.79 | 0.22 | 0.63 | 0.71 | 1.35 | 1.34 | 9.27 | 1.81 | 8.82 | 0.39 | 0.9 | 0.13 | 0.71
4 | Cc1nn([C@@H](C)CO)c2c1/C=C/c1n[nH]c3c(C)nc(cc13)-c1c(C)nn(C)c1O[C@@H](C)CN(C)C2 [Ex. 57, (2S)-2-[(10S,17E)-6,8,10,12,16,20-hexamethyl-2,8,10,11,12,13-hexahydro-14H-5,3-(azenometheno)tripyrazolo[3,4-f:3′,4′-j:4″,3″-n][1,4]oxazacyclopentadecin-14-yl]propan-1-ol] | 0.86 | 0.8 | 1.38 | 4.83 | 11.3 | 10.5 | 26.1 | 21.9 | 68.2 | 8.59 | 1.77 | 0.69 | 61.8
5 | CCOc1nn(CCO)c2c1/C=C/c1n[nH]c3cnc(cc13)-c1cnn(C)c1O[C@@H](C)CN(C1CC1)C2 [Ex. 30, 2-[(10S,17E)-12-cyclopropyl-16-ethoxy-8,10-dimethyl-2,8,10,11,12,13-hexahydro-14H-5,3-(azenometheno)tripyrazolo[3,4-f:3,4′-j:4″,3″-n][1,4]oxazacyclopentadecin-14-yl]ethan-1-ol] | 0.19 | 0.15 | 0.49 | 0.15 | 3.64 | 3.31 | 14 | 4.44 | 1.96 | 0.5 | 1.02 | 0.14 | 0.65
6 | Cc1nn(C)c2c1-c1cc3c(n[nH]c3cn1)/C=C/c1c(C#N)nn([C@@H](C)CO)c1CN(C)C[C@H](C)O2 [Ex. 48, (10S,17E)-14-[(2S)-1-hydroxypropan-2-yl]-6,8,10,12-tetramethyl-2,10,11,12,13,14-hexahydro-8H-5,3-(azenometheno)tripyrazolo[3,4-f:3′,4′-j:4″,3″-n∥1,4]oxazacyclopentadecine-16-carbonitrile] | 0.37 | 0.18 | 0.63 | 0.23 | 3.14 | 6.12 | 37 | 17.8 | 55.6 | 2.08 | 1.21 | 0.16 | 17.1
7 | CCOc1nn(CCO)c2c1/C=C/c1n[nH]c3cnc(cc13)-c1c(C)nn(C)c1O[C@@H](C)[C@H]1CCCN1C2 [Ex. 32, 2-[(8aR,9S,19E)-1-ethoxy-9,11,13-trimethyl-7,8,8a,9,11,17-hexahydro-6H-14,16-(azenometheno)tripyrazolo[3,4-f:3′,4′-j:4″,3″-n]pyrrolo[2,1-c][1,4]oxazacyclopentadecin-3(4H)-yl]ethan-1-ol] | 0.77 | 0.33 | 1.09 | 0.63 | 1.08 | 1.48 | 9.53 | 0.54 | 1.39 | 0.25 | 0.87 | 0.07 | 0.48
8 | CCOc1nn([C@@H](C)CO)c2c1/C=C/c1n[nH]c3cnc(cc13)-c1c(C)nn(C)c1O[C@@H](C)[C@H]1CCCN1C2 [Ex. 56, (2S)-2-[(8aR,9S,19E)-1-ethoxy-9,11,13-trimethyl-7,8,8a,9,11,17-hexahydro-6H-14,16-(azenometheno)tripyrazolo[3,4-f:3′,4′-j:4″,3″-n]pyrrolo[2,1-c][1,4]oxazacyclopentadecin-3(4H)-yl]propan-1-ol] | 0.98 | 0.45 | 1.11 | 0.67 | 0.82 | 1.26 | 8.41 | 0.32 | 0.92 | 0.28 | 0.61 | 0.05 | 0.48
9 | Cc1nn(C)c2c1-c1cc3c(n[nH]c3cn1)/C=C/c1c(OCC#N)nn([C@@H](C)CO)c1CN(C)C[C@H](C)O2 [Ex. 53, {[(10S,17E)-14-[(2S)-1-hydroxypropan-2-yl]-6,8,10,12-tetramethyl-2,10,11,12,13,14-hexahydro-8H-5,3-(azenometheno)tripyrazolo[3,4-f:3′,4′-j:4″,3″-n][1,4]oxazacyclopentadecin-16-yl]oxy}acetonitrile] | 0.67 | 0.37 | 1.12 | 0.45 | 2.57 | 8.74 | 21 | 2.94 | 15.7 | 1.1 | 1.57 | 0.18 | 4.31
10 | CCOc1nn([C@@H](C)CO)c2c1/C=C/c1n[nH]c3c(C)nc(cc13)-c1cnn(C)c1O[C@@H](C)CN(C)C2 [Ex. 45, (2S)-2-[(10S,17E)-16-ethoxy-8,10,12,20-tetramethyl-2,8,10,11,12,13-hexahydro-14H-5,3-(azenometheno)tripyrazolo[3,4-f:3′,4′-j:4″,3″-n][1,4]oxazacyclopentadecin-14-yl]propan-1-ol] | 0.53 | 0.28 | 0.95 | 0.69 | 2.15 | 1.24 | 12.2 | 3.31 | 1.09 | 1.12 | 0.47 | 0.12 | 1.04
